Legend:
Assay type in all cases: in vivo
[1] = test system: barnyardgrass (Echinochloa crus-galli); experiment: Test A pre/postemergence
Procedure, shortened: (§1)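 Compared with untreated controls, treated plants were visually rated for injury on a 0 (none) to 100 (complete control) scale about ten days after spraying. Pre- and postemergence applications used one solvent/surfactant formulation; postemergence plants measured 2–10 cm.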

[2] = test system: crabgrass (Digitaria sanguinalis); experiment: Test A pre/postemergence
Procedure, shortened: as §1

[3] = test system: giant foxtail (Setaria faberi); experiment: Test A pre/postemergence
Procedure, shortened: as §1

[4] = test system: morningglory (Ipomoea spp.); experiment: Test A pre/postemergence
Procedure, shortened: as §1

[5] = test system: redroot pigweed (Amaranthus retroflexus); experiment: Test A pre/postemergence
Procedure, shortened: as §1

[6] = test system: velvetleaf (Abutilon theophrasti); experiment: Test A pre/postemergence
Procedure, shortened: as §1

[7] = test system: barnyardgrass (Echinochloa crus-galli); experiment: Test E flooded paddy water application; conditions: Flood, 21 days, scale 0 to 100 (0 no effect, 100 complete control)
Source text: (§2) Three plastic pots (ca. 16-cm diameter) per rate were partially filled with sterilized Tama silt loam soil comprising a 35:50:15 ratio of sand, silt and clay and 2.6% organic matter. Separate plantings for each of the three pots were as follows. Seeds from the U.S. of ducksalad (Heteranthera limosa), smallflower umbrella sedge (Cyperus difformis) and purple redstem (Ammannia coccinea), were planted into one 16-cm pot for each rate. Seeds from the U.S. of rice flatsedge (Cyperus iria), bearded (brdd.) sprangletop (Leptochloa fusca ssp. fascicularis), one stand of 9 or 10 water seeded rice seedlings (Oryza sativa cv. ‘Japonica-M202’), and one stand of 6 transplanted rice seedlings (Oryza sativa cv. ‘Japonica-M202’) were planted into one 16-cm pot for each rate. Seeds from the U.S. of barnyardgrass (Echinochloa crus-galli), late watergrass (Echinochloa oryzicola), early watergrass (Echinochloa oryzoides) and junglerice (Echinochloa colona) were planted into one 16-cm pot for each rate. Plantings were sequential so that crop and weed species were at the 2.0 to 2.5-leaf stage at time of treatment.
(§3) Potted plants were grown in a greenhouse with day/night temperature settings of 29.5/26.7° C., and supplemental balanced lighting was provided to maintain a 16-hour photoperiod. Test pots were maintained in the greenhouse until test completion.
(§4) At time of treatment, test pots were flooded to 3 cm above the soil surface, treated by application of test compounds directly to the paddy water, and then maintained at that water depth for the duration of the test. Effects of treatments on rice and weeds were visually evaluated by comparison to untreated controls after 21 days. Plant response ratings, summarized in Table E, are based on a scale of 0 to 100 where 0 is no effect and 100 is complete control. A dash (-) response means no test result.

[8] = test system: bearded (brdd.) sprangletop (Leptochloa fusca ssp. fascicularis); experiment: Test E flooded paddy water application; conditions: Flood, 21 days, scale 0 to 100 (0 no effect, 100 complete control); for Plant response rating, Sprangletop, Brdd.: 16 g ai/ha
Source text: as §2, §3, §4

[9] = test system: ducksalad (Heteranthera limosa); experiment: Test E flooded paddy water application; conditions: Flood, 21 days, scale 0 to 100 (0 no effect, 100 complete control); for Plant response rating, Ducksalad: 16 g ai/ha
Source text: as §2, §3, §4

[10] = test system: early watergrass (Echinochloa oryzoides); experiment: Test E flooded paddy water application; conditions: Flood, 21 days, scale 0 to 100 (0 no effect, 100 complete control); for Plant response rating, Watergrass, Early: 16 g ai/ha
Source text: as §2, §3, §4

[11] = test system: junglerice (Echinochloa colona); experiment: Test E flooded paddy water application; conditions: Flood, 21 days, scale 0 to 100 (0 no effect, 100 complete control); for Plant response rating, Junglerice: 16 g ai/ha
Source text: as §2, §3, §4

[12] = test system: late watergrass (Echinochloa oryzicola); experiment: Test E flooded paddy water application; conditions: Flood, 21 days, scale 0 to 100 (0 no effect, 100 complete control); for Plant response rating, Watergrass, Late: 16 g ai/ha
Source text: as §2, §3, §4

[13] = test system: purple redstem (Ammannia coccinea); experiment: Test E flooded paddy water application; conditions: Flood, 21 days, scale 0 to 100 (0 no effect, 100 complete control); for Plant response rating, Redstem: 16 g ai/ha
Source text: as §2, §3, §4

[14] = test system: rice flatsedge (Cyperus iria); experiment: Test E flooded paddy water application; conditions: Flood, 21 days, scale 0 to 100 (0 no effect, 100 complete control); for Plant response rating, Flatsedge, Rice: 16 g ai/ha
Source text: as §2, §3, §4

[15] = test system: transplanted rice seedlings (Oryza sativa cv. ‘Japonica-M202’); experiment: Test E flooded paddy water application; conditions: Flood, 21 days, scale 0 to 100 (0 no effect, 100 complete control); for Plant response rating, Rice, Transplanted: 16 g ai/ha
Source text: as §2, §3, §4

[16] = test system: water seeded rice seedlings (Oryza sativa cv. ‘Japonica-M202’); experiment: Test E flooded paddy water application; conditions: Flood, 21 days, scale 0 to 100 (0 no effect, 100 complete control); for Plant response rating, Rice, Water Seeded: 16 g ai/ha
Source text: as §2, §3, §4

[17] = test system: smallflower umbrella sedge (Cyperus difformis); experiment: Test E flooded paddy water application; conditions: Flood, 21 days, scale 0 to 100 (0 no effect, 100 complete control)
Source text: as §2, §3, §4

[18] = Postemergence, 125 g ai/ha, 0 to 100 scale (0 no effect, 100 complete control)
[19] = Postemergence, 500 g ai/ha, 0 to 100 scale (0 no effect, 100 complete control)
[20] = Preemergence, 125 g ai/ha, 0 to 100 scale where 0 is no effect and 100 is complete control, approximately ten days
[21] = Preemergence, 500 g ai/ha, 0 to 100 scale where 0 is no effect and 100 is complete control, approximately ten days

CCOC(=O)c1nc(-c2ccc(CC)cc2)nc(N)c1Cl [Compound 99]
Plant response rating, Barnyardgrass [1, 18]: 0
Plant response rating, Barnyardgrass [1, 19]: 0
Plant response rating, Barnyardgrass [1, 20]: 0
Plant response rating, Barnyardgrass [1, 21]: 0
Plant response rating, Crabgrass [2, 18]: 0
Plant response rating, Crabgrass [2, 19]: 0
Plant response rating, Crabgrass [2, 20]: 0
Plant response rating, Crabgrass [2, 21]: 0
Plant response rating, Foxtail, Giant [3, 18]: 0
Plant response rating, Foxtail, Giant [3, 19]: 0
Plant response rating, Foxtail, Giant [3, 20]: 0
Plant response rating, Foxtail, Giant [3, 21]: 0
Plant response rating, Morningglory [4, 18]: 0
Plant response rating, Morningglory [4, 19]: 0
Plant response rating, Morningglory [4, 20]: 0
Plant response rating, Morningglory [4, 21]: 0
Plant response rating, Pigweed [5, 18]: 5
Plant response rating, Pigweed [5, 19]: 10
Plant response rating, Pigweed [5, 20]: 0
Plant response rating, Pigweed [5, 21]: 0
Plant response rating, Velvetleaf [6, 18]: 0
Plant response rating, Velvetleaf [6, 19]: 35
Plant response rating, Velvetleaf [6, 20]: 0
Plant response rating, Velvetleaf [6, 21]: 0
Barnyardgrass plant response rating ([7]; 32 g ai/ha): 0
Barnyardgrass plant response rating ([7]; 64 g ai/ha): 0
Barnyardgrass plant response rating ([7]; 125 g ai/ha): 0
Barnyardgrass plant response rating ([7]; 250 g ai/ha): 0
Plant response rating, Barnyardgrass ([7]; 16 g ai/ha): 0
Sprangletop, Brdd. plant response rating ([8]; 32 g ai/ha): 0
Sprangletop, Brdd. plant response rating ([8]; 64 g ai/ha): 0
Sprangletop, Brdd. plant response rating ([8]; 125 g ai/ha): 0
Sprangletop, Brdd. plant response rating ([8]; 250 g ai/ha): 0
Plant response rating, Sprangletop, Brdd. [8]: 0
Ducksalad plant response rating ([9]; 32 g ai/ha): 100
Ducksalad plant response rating ([9]; 64 g ai/ha): 100
Ducksalad plant response rating ([9]; 125 g ai/ha): 100
Ducksalad plant response rating ([9]; 250 g ai/ha): 100
Plant response rating, Ducksalad [9]: 95
Watergrass, Early plant response rating ([10]; 32 g ai/ha): 0
Watergrass, Early plant response rating ([10]; 64 g ai/ha): 0
Watergrass, Early plant response rating ([10]; 125 g ai/ha): 0
Watergrass, Early plant response rating ([10]; 250 g ai/ha): 0
Plant response rating, Watergrass, Early [10]: 0
Junglerice plant response rating ([11]; 32 g ai/ha): 0
Junglerice plant response rating ([11]; 64 g ai/ha): 0
Junglerice plant response rating ([11]; 125 g ai/ha): 0
Junglerice plant response rating ([11]; 250 g ai/ha): 0
Plant response rating, Junglerice [11]: 0
Watergrass, Late plant response rating ([12]; 32 g ai/ha): 0
Watergrass, Late plant response rating ([12]; 64 g ai/ha): 0
Watergrass, Late plant response rating ([12]; 125 g ai/ha): 0
Watergrass, Late plant response rating ([12]; 250 g ai/ha): 0
Plant response rating, Watergrass, Late [12]: 0
Redstem plant response rating ([13]; 32 g ai/ha): 0
Redstem plant response rating ([13]; 125 g ai/ha): 0
Redstem plant response rating ([13]; 250 g ai/ha): 45
Plant response rating, Redstem [13]: 0
Flatsedge, Rice plant response rating ([14]; 64 g ai/ha): 100
Flatsedge, Rice plant response rating ([14]; 125 g ai/ha): 100
Flatsedge, Rice plant response rating ([14]; 250 g ai/ha): 100
Plant response rating, Flatsedge, Rice [14]: 100
Rice, Transplanted plant response rating ([15]; 32 g ai/ha): 0
Rice, Transplanted plant response rating ([15]; 64 g ai/ha): 0
Rice, Transplanted plant response rating ([15]; 125 g ai/ha): 0
Rice, Transplanted plant response rating ([15]; 250 g ai/ha): 20
Plant response rating, Rice, Transplanted [15]: 0
Rice, Water Seeded plant response rating ([16]; 32 g ai/ha): 0
Rice, Water Seeded plant response rating ([16]; 64 g ai/ha): 0
Rice, Water Seeded plant response rating ([16]; 125 g ai/ha): 20
Rice, Water Seeded plant response rating ([16]; 250 g ai/ha): 20
Plant response rating, Rice, Water Seeded [16]: 0

CCOC(=O)c1nc(-c2ccc(F)cc2)nc(N)c1Br [Compound 63]
Plant response rating, Barnyardgrass [1, 18]: 0
Plant response rating, Barnyardgrass [1, 19]: 0
Plant response rating, Barnyardgrass [1, 20]: 0
Plant response rating, Barnyardgrass [1, 21]: 40
Plant response rating, Crabgrass [2, 18]: 0
Plant response rating, Crabgrass [2, 19]: 0
Plant response rating, Crabgrass [2, 20]: 0
Plant response rating, Crabgrass [2, 21]: 75
Plant response rating, Foxtail, Giant [3, 18]: 0
Plant response rating, Foxtail, Giant [3, 19]: 0
Plant response rating, Foxtail, Giant [3, 20]: 0
Plant response rating, Foxtail, Giant [3, 21]: 35
Plant response rating, Morningglory [4, 18]: 20
Plant response rating, Morningglory [4, 19]: 25
Plant response rating, Morningglory [4, 20]: 0
Plant response rating, Morningglory [4, 21]: 0
Plant response rating, Pigweed [5, 18]: 40
Plant response rating, Pigweed [5, 19]: 65
Plant response rating, Pigweed [5, 20]: 0
Plant response rating, Pigweed [5, 21]: 80
Plant response rating, Velvetleaf [6, 18]: 55
Plant response rating, Velvetleaf [6, 19]: 70
Plant response rating, Velvetleaf [6, 20]: 0
Plant response rating, Velvetleaf [6, 21]: 15
Sprangletop, Brdd. plant response rating ([8]; 32 g ai/ha): 0
Sprangletop, Brdd. plant response rating ([8]; 64 g ai/ha): 40
Sprangletop, Brdd. plant response rating ([8]; 125 g ai/ha): 40
Sprangletop, Brdd. plant response rating ([8]; 250 g ai/ha): 65
Plant response rating, Sprangletop, Brdd. [8]: 0
Ducksalad plant response rating ([9]; 32 g ai/ha): 30
Ducksalad plant response rating ([9]; 64 g ai/ha): 65
Ducksalad plant response rating ([9]; 125 g ai/ha): 100
Ducksalad plant response rating ([9]; 250 g ai/ha): 100
Plant response rating, Ducksalad [9]: 30
Watergrass, Early plant response rating ([10]; 32 g ai/ha): 0
Watergrass, Early plant response rating ([10]; 64 g ai/ha): 0
Watergrass, Early plant response rating ([10]; 125 g ai/ha): 0
Watergrass, Early plant response rating ([10]; 250 g ai/ha): 0
Plant response rating, Watergrass, Early [10]: 0
Junglerice plant response rating ([11]; 32 g ai/ha): 0
Junglerice plant response rating ([11]; 64 g ai/ha): 0
Junglerice plant response rating ([11]; 125 g ai/ha): 0
Junglerice plant response rating ([11]; 250 g ai/ha): 30
Plant response rating, Junglerice [11]: 0
Watergrass, Late plant response rating ([12]; 32 g ai/ha): 0
Watergrass, Late plant response rating ([12]; 64 g ai/ha): 0
Watergrass, Late plant response rating ([12]; 125 g ai/ha): 0
Watergrass, Late plant response rating ([12]; 250 g ai/ha): 0
Plant response rating, Watergrass, Late [12]: 0
Redstem plant response rating ([13]; 32 g ai/ha): 65
Redstem plant response rating ([13]; 64 g ai/ha): 65
Redstem plant response rating ([13]; 125 g ai/ha): 75
Redstem plant response rating ([13]; 250 g ai/ha): 75
Plant response rating, Redstem [13]: 65
Flatsedge, Rice plant response rating ([14]; 32 g ai/ha): 75
Flatsedge, Rice plant response rating ([14]; 64 g ai/ha): 75
Flatsedge, Rice plant response rating ([14]; 125 g ai/ha): 85
Flatsedge, Rice plant response rating ([14]; 250 g ai/ha): 85
Plant response rating, Flatsedge, Rice [14]: 60
Sedge, Umbrella plant response rating ([17]; 32 g ai/ha): 75
Sedge, Umbrella plant response rating ([17]; 64 g ai/ha): 75
Sedge, Umbrella plant response rating ([17]; 125 g ai/ha): 75
Sedge, Umbrella plant response rating ([17]; 250 g ai/ha): 80
Plant response rating, Sedge, Umbrella ([17]; 16 g ai/ha): 70
Rice, Transplanted plant response rating ([15]; 32 g ai/ha): 0
Rice, Transplanted plant response rating ([15]; 64 g ai/ha): 0
Rice, Transplanted plant response rating ([15]; 125 g ai/ha): 0
Rice, Transplanted plant response rating ([15]; 250 g ai/ha): 0
Plant response rating, Rice, Transplanted [15]: 0
Rice, Water Seeded plant response rating ([16]; 32 g ai/ha): 0
Rice, Water Seeded plant response rating ([16]; 64 g ai/ha): 0
Rice, Water Seeded plant response rating ([16]; 125 g ai/ha): 20
Rice, Water Seeded plant response rating ([16]; 250 g ai/ha): 30
Plant response rating, Rice, Water Seeded [16]: 0

From US8802597B2, “Herbicidal pyrimidines” (E I du Pont de Nemours and Company, priority 2003, dated 2014)
